Experimental data as given in ChEMBL document CHEMBL1156755, “Discovery of (Z)-5-(4-methoxybenzylidene)thiazolidine-2,4-dione, a readily available and orally active glitazone for the treatment of concanavalin A-induced acute liver injury of BALB/c mice” (J Med Chem, 2010).
Activity calls are given as the source filed them. No cut-off for these calls is given here.

Columns and labels:
RAW264.7 [1] = test: Inhibition of MCP1-induced chemotaxis in mouse RAW264.7 cells at 25 ug/mL relative to control; format: functional
Mus musculus [2] = test: Effect on serum alanine aminotransaminase level in concanavalin A-induced acute hepatitis model of BALB/c mouse at 50 mg/kg, po treated 0.5 hrs after concanavalin A challenge measured after 20 hrs (Rvb= 5734.5 +/- 2599.5); format: functional
RAW264.7 [3] = test: Inhibition of MCP1-induced chemotaxis in mouse RAW264.7 cells; format: functional, cell-based
Mus musculus [4] = test: Effect on serum aspartate aminotransaminase level in concanavalin A-induced acute hepatitis model of BALB/c mouse at 50 mg/kg, po treated 0.5 hrs after concanavalin A challenge measured after 20 hrs (Rvb= 4997.9 +/- 2619.6); format: functional
Mus musculus [5] = test: Decrease in concanavalin A-induced hepatic cell necrosis in acute hepatitis model of BALB/c mouse at 50 mg/kg, ig treated 0.5 hrs after concanavalin A challenge measured after 20 hrs by H and E staining based histopathology study; format: functional, organism-based; set-up: dose 50 mg/kg
Mus musculus [6] = test: Toxicity in BALB/c mouse assessed as pathological changes in heart at 50 mg/kg, ig after 20 hrs by H and E staining based histopathology study; format: organism-based; set-up: dose 50 mg/kg, route intragastric; details: in vivo, po
Mus musculus [7] = test: Toxicity in BALB/c mouse liver assessed as change in transaminase level at 50 mg/kg, ig after 20 hrs by H and E staining based histopathology study; format: organism-based; set-up: dose 50 mg/kg, route intragastric; details: in vivo, po
Mus musculus [8] = test: Toxicity in BALB/c mouse assessed as pathological changes in kidney at 50 mg/kg, ig after 20 hrs by H and E staining based histopathology study; format: organism-based; set-up: dose 50 mg/kg, route intragastric; details: in vivo, po
Mus musculus [9] = test: Plasma concentration in BALB/c mouse at 30 mg/kg, po; format: ADME, organism-based; set-up: dose 30 mg/kg, route oral; details: in vivo
[10] = Oral bioavailability in BALB/c mouse at 30 mg/kg; format: ADME, organism-based; details: in vivo
Mus musculus [11] = test: Toxicity in BALB/c mouse assessed as pathological changes in spleen at 50 mg/kg, ig after 20 hrs by H and E staining based histopathology study; format: organism-based; set-up: dose 50 mg/kg, route intragastric; details: in vivo, po
Mus musculus [12] = test: Toxicity in BALB/c mouse assessed as pathological changes in liver at 50 mg/kg, ig after 20 hrs by H and E staining based histopathology study; format: organism-based; set-up: dose 50 mg/kg, route intragastric; details: in vivo, po
[13] = Half life in BALB/c mouse at 30 mg/kg, po; format: ADME, organism-based; set-up: dose 30 mg/kg, route oral; details: in vivo
[14] = Tmax in BALB/c mouse at 30 mg/kg, po; format: ADME, organism-based; set-up: dose 30 mg/kg, route oral; details: in vivo
Mus musculus [15] = test: Toxicity in BALB/c mouse assessed as pathological changes in lung at 50 mg/kg, ig after 20 hrs by H and E staining based histopathology study; format: organism-based; set-up: dose 50 mg/kg, route intragastric; details: in vivo, po

COc1cc(C=C2C(=O)NC(=O)NC2=O)ccc1O
inhibition at 25 µg/mL (RAW264.7 [1]): 4.1%

O=C1C/C(=C\c2ccccc2)C(=O)N1
inhibition at 25 µg/mL (RAW264.7 [1]): 5.7%

O=C1NC(=S)NC(=O)C1=Cc1ccc(Cl)cc1
inhibition at 25 µg/mL (RAW264.7 [1]): 4.1%

COc1ccc(C=C2C(=O)NC(=S)NC2=O)cc1OC
inhibition at 25 µg/mL (RAW264.7 [1]): 14.2%

CN(C)c1ccc(C=C2C(=O)NC(=O)NC2=O)cc1
inhibition at 25 µg/mL (RAW264.7 [1]): 6.2%

O=C1NC(=S)NC(=O)C1=Cc1ccc(O)cc1
inhibition at 25 µg/mL (RAW264.7 [1]): 14.2%

O=C1NC(=O)/C(=C/c2ccc(O)cc2)S1
inhibition at 25 µg/mL (RAW264.7 [1]): 25.1%

COc1ccc(/C=C2\NC(=O)NC2=O)cc1OC
inhibition at 25 µg/mL (RAW264.7 [1]): 8.7%

N=C1NC(=O)/C(=C/c2ccccc2)S1
inhibition at 25 µg/mL (RAW264.7 [1]): 10.1%

O=C1NC(=O)/C(=C/c2ccc3nccnc3c2)S1
Activity (Mus musculus [2]): 1187.5 U/L | IC50 (RAW264.7 [3]): 5.31 µM | inhibition at 25 µg/mL (RAW264.7 [1]): 36.9% | Activity (Mus musculus [4]): 1084.5 U/L

O=C1NC(=O)/C(=C/c2ccc(Br)cc2)S1
inhibition at 25 µg/mL (RAW264.7 [1]): 16.9%

O=C1NC(=S)NC(=O)C1=Cc1cccc(O)c1
inhibition at 25 µg/mL (RAW264.7 [1]): 5.7%

O=C1NC(=O)/C(=C/c2ccc(Br)cc2)N1
inhibition at 25 µg/mL (RAW264.7 [1]): 14%

CN(C)c1ccc(/C=C2\SC(=N)NC2=O)cc1
inhibition at 25 µg/mL (RAW264.7 [1]): 14%

COc1ccc(/C=C2\SC(=O)NC2=O)cc1OC
inhibition at 25 µg/mL (RAW264.7 [1]): 16.6%

O=C1NC(=O)C(=Cc2ccc(Br)cc2)C(=O)N1
inhibition at 25 µg/mL (RAW264.7 [1]): 5.7%

O=C1NC(=O)/C(=C/c2cccc(O)c2)N1
inhibition at 25 µg/mL (RAW264.7 [1]): 4.4%

COc1cc(/C=C2\NC(=O)NC2=O)ccc1O
inhibition at 25 µg/mL (RAW264.7 [1]): 16.6%

CN(C)c1ccc(C=C2C(=O)NC(=S)NC2=O)cc1
Activity (Mus musculus [5]): Active | Activity (Mus musculus [2]): 2930.2 U/L | IC50 (RAW264.7 [3]): 7.2 µM | inhibition at 25 µg/mL (RAW264.7 [1]): 35.7% | Activity (Mus musculus [4]): 2072.8 U/L

O=C1NC(=O)/C(=C/c2cccc(O)c2)S1
inhibition at 25 µg/mL (RAW264.7 [1]): 14.4%

N=C1NC(=O)/C(=C/c2ccc(O)cc2)S1 [MIRIN]
inhibition at 25 µg/mL (RAW264.7 [1]): 4.4%

N=C1NC(=O)/C(=C/c2ccc(Br)cc2)S1
inhibition at 25 µg/mL (RAW264.7 [1]): 16.6%

N=C1NC(=O)/C(=C/c2ccc(Cl)cc2)S1
inhibition at 25 µg/mL (RAW264.7 [1]): 13%

O=C1NC(=S)NC(=O)C1=Cc1ccccc1O
inhibition at 25 µg/mL (RAW264.7 [1]): 8.9%

COc1ccc(C=C2C(=O)NC(=O)NC2=O)cc1OC
inhibition at 25 µg/mL (RAW264.7 [1]): 14.2%

COc1ccc(/C=C2\SC(=O)NC2=O)cc1
Activity (Mus musculus [5]): Active | Activity (Mus musculus [6]): Non-toxic | Activity (Mus musculus [7]): Non-toxic | Activity (Mus musculus [8]): Non-toxic | Cp (Mus musculus [9]): 4980 ng/mL | Activity (Mus musculus [2]): 677.7 U/L | bioavailability [10]: 14.9% | Activity (Mus musculus [11]): Non-toxic | Activity (Mus musculus [12]): Non-toxic | IC50 (RAW264.7 [3]): 0.72 µM | inhibition at 25 µg/mL (RAW264.7 [1]): 57.8% | half-life [13]: 3.37 h | Tmax [14]: 0.5 h | Activity (Mus musculus [15]): Non-toxic | Activity (Mus musculus [4]): 620 U/L

O=C1NC(=O)C(=Cc2ccccc2O)C(=O)N1
inhibition at 25 µg/mL (RAW264.7 [1]): 5.8%

O=C1NC(=S)NC(=O)C1=Cc1ccc(Br)cc1
inhibition at 25 µg/mL (RAW264.7 [1]): 4.3%

O=C1C/C(=C\c2ccc(O)cc2)C(=O)N1
inhibition at 25 µg/mL (RAW264.7 [1]): 8.4%

O=C1NC(=O)C(=Cc2ccccc2)C(=O)N1
inhibition at 25 µg/mL (RAW264.7 [1]): 5.7%

O=C1NC(=O)/C(=C/c2ccccc2)S1
inhibition at 25 µg/mL (RAW264.7 [1]): 16.9%

COc1ccc(/C=C2\CC(=O)NC2=O)cc1
inhibition at 25 µg/mL (RAW264.7 [1]): 13.3%

CN(C)c1ccc(/C=C2\SC(=O)NC2=O)cc1
inhibition at 25 µg/mL (RAW264.7 [1]): 15.8%

COc1cc(/C=C2\SC(=O)NC2=O)ccc1O
inhibition at 25 µg/mL (RAW264.7 [1]): 15.8%

O=C1NC(=O)C(=Cc2ccc(Cl)cc2)C(=O)N1
inhibition at 25 µg/mL (RAW264.7 [1]): 4.1%

O=C1NC(=O)/C(=C/c2ccc(O)cc2)N1 [4-HYDROXYPHENYLMETHYLENE HYDANTOIN]
inhibition at 25 µg/mL (RAW264.7 [1]): 13%

CN(C)c1ccc(/C=C2\CC(=O)NC2=O)cc1
inhibition at 25 µg/mL (RAW264.7 [1]): 15.7%

COc1cc(/C=C2\CC(=O)NC2=O)ccc1O
Activity (Mus musculus [2]): 3304.1 U/L | IC50 (RAW264.7 [3]): 20.5 µM | inhibition at 25 µg/mL (RAW264.7 [1]): 39.5% | Activity (Mus musculus [4]): 3126.9 U/L

O=C1C/C(=C\c2cccc(O)c2)C(=O)N1
inhibition at 25 µg/mL (RAW264.7 [1]): 11.4%

COc1ccc(/C=C2\SC(=N)NC2=O)cc1
inhibition at 25 µg/mL (RAW264.7 [1]): 18.6%

O=C1NC(=S)NC(=O)C1=Cc1ccccc1
inhibition at 25 µg/mL (RAW264.7 [1]): 10.2%

O=C1NC(=O)C(=Cc2ccc(O)cc2)C(=O)N1
inhibition at 25 µg/mL (RAW264.7 [1]): 4.3%

COc1ccc(/C=C2\NC(=O)NC2=O)cc1
inhibition at 25 µg/mL (RAW264.7 [1]): 19.9%

O=C1NC(=O)C(=Cc2cccc(O)c2)C(=O)N1
inhibition at 25 µg/mL (RAW264.7 [1]): 15%

COc1ccc(C=C2C(=O)NC(=S)NC2=O)cc1
Activity (Mus musculus [5]): Active | Activity (Mus musculus [2]): 3141.2 U/L | IC50 (RAW264.7 [3]): 11.2 µM | inhibition at 25 µg/mL (RAW264.7 [1]): 27.4% | Activity (Mus musculus [4]): 2109.7 U/L

O=C1C/C(=C\c2ccc(Br)cc2)C(=O)N1
inhibition at 25 µg/mL (RAW264.7 [1]): 14.3%

O=C1C/C(=C\c2ccc(Cl)cc2)C(=O)N1
inhibition at 25 µg/mL (RAW264.7 [1]): 17.9%

COc1cc(/C=C2\SC(=N)NC2=O)ccc1O
inhibition at 25 µg/mL (RAW264.7 [1]): 19.9%

COc1cc(C=C2C(=O)NC(=S)NC2=O)ccc1O
inhibition at 25 µg/mL (RAW264.7 [1]): 14.4%

CN(C)c1ccc(/C=C2\NC(=O)NC2=O)cc1
inhibition at 25 µg/mL (RAW264.7 [1]): 18.6%

COc1ccc(C=C2C(=O)NC(=O)NC2=O)cc1
inhibition at 25 µg/mL (RAW264.7 [1]): 6.2%

COc1ccc(/C=C2\SC(=N)NC2=O)cc1OC
inhibition at 25 µg/mL (RAW264.7 [1]): 9.4%
